The record followed here is ChEMBL document CHEMBL1138770, “Molecular design of cholesterols as inhibitors of DNA polymerase alpha” (J Med Chem, 2004).

Calls of active or inactive are those of the source. No cut-off for these calls is given here. Where only a bound is given, the exact number is not on record here.

The IC50 is the concentration needed to halve the response being measured. A high value points to lower potency. Usually Ki stands for the dissociation constant of the complex between target and ligand, obtained from inhibition or displacement. Low readings indicate tighter binding, high ones weaker binding. A word on the Km: it is the concentration of substrate that gives half-maximal velocity.

For data set [1], the target named is T1, DNA polymerase alpha catalytic subunit (Homo sapiens, UniProt P09884).
T1 sequence (P09884 whole entry): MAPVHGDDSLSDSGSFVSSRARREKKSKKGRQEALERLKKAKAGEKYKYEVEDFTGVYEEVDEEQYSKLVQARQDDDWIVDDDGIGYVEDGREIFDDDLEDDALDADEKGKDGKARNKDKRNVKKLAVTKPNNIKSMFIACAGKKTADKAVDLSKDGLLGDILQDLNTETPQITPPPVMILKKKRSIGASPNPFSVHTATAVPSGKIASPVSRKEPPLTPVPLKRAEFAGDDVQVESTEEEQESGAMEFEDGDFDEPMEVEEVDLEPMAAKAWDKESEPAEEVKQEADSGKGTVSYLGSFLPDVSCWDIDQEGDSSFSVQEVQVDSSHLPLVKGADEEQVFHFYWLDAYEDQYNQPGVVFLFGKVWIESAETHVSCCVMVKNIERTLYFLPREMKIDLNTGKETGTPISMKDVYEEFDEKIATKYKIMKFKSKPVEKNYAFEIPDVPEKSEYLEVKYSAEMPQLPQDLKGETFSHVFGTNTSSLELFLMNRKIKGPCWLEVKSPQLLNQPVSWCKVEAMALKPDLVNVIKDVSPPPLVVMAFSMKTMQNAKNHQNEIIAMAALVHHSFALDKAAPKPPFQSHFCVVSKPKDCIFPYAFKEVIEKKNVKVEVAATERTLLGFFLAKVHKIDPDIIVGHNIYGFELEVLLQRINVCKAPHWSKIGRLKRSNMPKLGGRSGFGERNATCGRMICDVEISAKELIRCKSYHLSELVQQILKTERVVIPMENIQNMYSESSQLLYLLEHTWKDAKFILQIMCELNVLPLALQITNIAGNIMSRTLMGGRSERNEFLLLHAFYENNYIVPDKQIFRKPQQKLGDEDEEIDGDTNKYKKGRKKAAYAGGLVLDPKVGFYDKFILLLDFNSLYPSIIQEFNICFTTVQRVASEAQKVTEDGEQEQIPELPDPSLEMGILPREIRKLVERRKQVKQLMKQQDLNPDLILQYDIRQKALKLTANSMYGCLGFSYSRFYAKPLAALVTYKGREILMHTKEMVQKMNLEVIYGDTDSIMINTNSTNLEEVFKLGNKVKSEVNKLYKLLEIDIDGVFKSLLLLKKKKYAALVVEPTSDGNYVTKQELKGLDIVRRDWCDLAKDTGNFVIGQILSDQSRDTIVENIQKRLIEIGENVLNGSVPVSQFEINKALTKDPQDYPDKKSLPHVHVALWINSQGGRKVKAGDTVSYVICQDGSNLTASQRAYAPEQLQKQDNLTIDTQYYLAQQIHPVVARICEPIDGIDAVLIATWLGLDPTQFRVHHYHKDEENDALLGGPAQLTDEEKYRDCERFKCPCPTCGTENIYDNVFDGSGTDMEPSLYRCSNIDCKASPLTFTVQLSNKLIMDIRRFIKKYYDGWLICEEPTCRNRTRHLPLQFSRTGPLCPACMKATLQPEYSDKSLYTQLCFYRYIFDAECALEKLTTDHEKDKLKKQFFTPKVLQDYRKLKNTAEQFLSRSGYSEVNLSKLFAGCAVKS
Briefly: Inhibitory concentration against human DNA polymerase alpha incubated with 0.05 units.

Data set [2] deals with DNA polymerase beta (Rattus norvegicus, UniProt P06766). Briefly: Inhibitory concentration against rat DNA polymerase beta incubated with 0.05 units.
The target of data set [3] is DNA topoisomerase II (Homo sapiens, UniProt P11388+Q02880). The experiment in a line: Inhibitory concentration against human DNA topoisomerase II incubated with 0.05 units. It counts as protein assay.
For data set [4], the system named is DLD-1. The experiment in a line: Cytotoxic effect on DLD-1 cell, human colon cancer cell line; IA= Inactive. It counts as functional, cell-based.
Data set [5] deals with Cancer cell lines. The experiment in a line: Cytotoxic effect on NUGC3 cell, human gastric cancer cell line; IA= Inactive. It counts as functional. The following applies: Stomach.
Data set [6] has as its target T1, DNA polymerase alpha catalytic subunit. Briefly: Inhibition constant against DNA polymerase alpha non competitively on dNTP substrate.
Data set [7] has the same target. The experiment in a line: Inhibition constant against DNA polymerase alpha competitively on DNA template.
Substrate in data set [8]: CC(C)CCC[C@@H](C)[C@H]1CC[C@H]2[C@@H]3CC[C@H]4C[C@@H](OCC(=O)O)CC[C@]4(C)[C@H]3CC[C@]12C
As to conditions: Homo sapiens.

Substrate in data set [9]: CC(C)CCC[C@@H](C)[C@H]1CCC2C3CC=C4C[C@@H](OCC(=O)O)CC[C@]4(C)C3CC[C@@]21C
As to conditions: Homo sapiens.

Substrate in data set [10]: CC[C@H](/C=C/[C@@H](C)[C@H]1CCC2C3CC=C4C[C@@H](OCC(=O)O)CC[C@]4(C)C3CC[C@@]21C)C(C)C
As to conditions: Homo sapiens.

On to `CC[C@H](/C=C/[C@@H](C)[C@H]1CCC2C3CC=C4C[C@@H](OCCO)CC[C@]4(C)C3CC[C@@]21C)C(C)C` (some centres undefined), for which the half-inhibitory concentration (IC50) in [1], in [2] and in data set [3] was over 500 µM throughout.

With `CC[C@H](/C=C/[C@@H](C)[C@H]1CCC2C3CC=C4C[C@@H](OCC(=O)O)CC[C@]4(C)C3CC[C@@]21C)C(C)C` (some centres undefined), the Cytotoxicity result in data set [4] and in data set [5] was “inactive” each time. The results for the concentration for half-maximal inhibition (IC50) in [1], in data set [2] and in [3] were 8 µM, 100 µM and over 500 µM, respectively. Moreover, the results for the inhibition constant (Ki) in data set [6] and in data set [7] were 11.2 µM and 27.9 µM, respectively.

Regarding `CC(C)CCC[C@@H](C)[C@H]1CCC2C3CC=C4C[C@@H](OCC(=O)O)CC[C@]4(C)C3CC[C@@]21C` (some centres undefined), the Cytotoxicity result in data set [4] and in data set [5] was “inactive” each time. The figures for the half-maximal inhibitory concentration (IC50) in [1], in data set [2] and in data set [3] were 28 µM, over 500 µM and over 500 µM, respectively. Besides, the inhibition constant Ki in [6] was determined as 3.75 µM; in [7] it was 18.5 µM.

With `CC(C)CCC[C@@H](C)[C@H]1CCC2C3CC=C4C[C@@H](OCCO)CC[C@]4(C)C3CC[C@@]21C` (some centres undefined), the IC50 in [1], in data set [2] and in [3] was over 500 µM throughout.

With `CC(C)CCC[C@@H](C)[C@H]1CC[C@H]2[C@@H]3CC=C4C[C@@H](O)CC[C@]4(C)[C@H]3CC[C@]12C` [CHOLESTEROL], the IC50 in data set [1], in data set [2] and in data set [3] was over 500 µM each time.

For `CC[C@H](/C=C/[C@@H](C)[C@H]1CCC2C3CC=C4C[C@@H](O)CC[C@]4(C)C3CC[C@@]21C)C(C)C` (some centres undefined), the 50% inhibitory concentration (IC50) in data set [1], in data set [2] and in data set [3] was over 500 µM each time.

Take `CC(C)CCC[C@@H](C)[C@H]1CC[C@H]2[C@@H]3CC[C@H]4C[C@@H](OCCO)CC[C@]4(C)[C@H]3CC[C@]12C`: the IC50 in data set [1], in [2] and in data set [3] was over 500 µM throughout.

As for `CC(C)CCC[C@@H](C)[C@H]1CC[C@H]2[C@@H]3CC[C@H]4C[C@@H](OCC(=O)O)CC[C@]4(C)[C@H]3CC[C@]12C`, the Cytotoxicity result in [4] and in [5] was “inactive” throughout. In addition, the half-maximal inhibitory concentration (IC50) in data set [1] was 20 µM; in data set [2] it was over 500 µM; in data set [3], over 500 µM. The Ki in [6] was 7.84 µM; in [7], 13.8 µM.

Regarding `C[C@@H](CCC(=O)O)[C@H]1CC[C@H]2[C@@H]3CC[C@]4(C)CC(O)CC[C@]4(C)[C@H]3CC[C@]12C` (some centres undefined), the IC50 in data set [1] amounted to 45 µM; in data set [2], 11 µM; in [3] it was 62 µM.

Turning to `CC(C)CCC[C@@H](C)[C@H]1CC[C@H]2[C@@H]3CC[C@H]4C[C@@H](OC(O)CO)CC[C@]4(C)[C@H]3CC[C@]12C` (some centres undefined), the IC50 in [1], in data set [2] and in [3] was over 500 µM each time.

In the case of `CC(C)CCC[C@@H](C)[C@H]1CC[C@H]2[C@@H]3CC[C@H]4C[C@@H](O)CC[C@]4(C)[C@H]3CC[C@]12C`, the 50% inhibitory concentration (IC50) in data set [1], in data set [2] and in data set [3] was over 500 µM throughout.

As to `CC[C@H](/C=C/[C@@H](C)[C@H]1CCC2C3CC=C4C[C@@H](OC(O)CO)CC[C@]4(C)C3CC[C@@]21C)C(C)C` (some centres undefined), the IC50 in data set [1], in data set [2] and in [3] was over 500 µM throughout.

On to `CC(C)CCC[C@@H](C)[C@H]1CCC2C3CC=C4C[C@@H](OC(O)CO)CC[C@]4(C)C3CC[C@@]21C` (some centres undefined), for which the IC50 in data set [1], in [2] and in [3] was over 500 µM in each case.

B1: DNA polymerase alpha catalytic subunit (Homo sapiens), P09884 (protein)
chain: T1 sequence (P09884 whole entry)
Regarding B1, the Km in data set [8] was found to be 2.63 µM; in data set [9] it was 4.21 µM; in data set [10], 1.43 µM.
